# Test results as given in a melting point compilation (Tetko et al.; mined from patent text by program, amines drawn as free bases though some values may be those of a salt).
row,melting point [°C],Compound
1,145 to 146,NS(=O)(=O)c1nn(-c2ccccn2)cc1Br
2,129 to 130,N#Cc1ccc(OCCCCOc2cccc(-c3cc4ccc(C#N)cc4o3)c2)cc1
3,140 to 141,CS(=O)(=O)c1ccc(-c2ccc(F)n2-c2ccc(F)cc2)cc1
4,130 to 132,Cc1cc(-c2ccc(-c3ccccc3)c(-c3ccc4c(c3)C(C)(C)CCC4(C)C)c2)ccc1C(=O)O
5,204 to 205,COC(=O)/C(=N\O)c1csc(NC(c2ccccc2)(c2ccccc2)c2ccccc2)n1
6,172,Fc1ccc2[nH]c3c(c2c1)CCNC3c1ccc2c(c1)OCO2 (stereo not drawn)
7,124 to 127,CSc1ncc(Br)c(P(=O)(c2ccccc2)c2ccccc2)n1
8,131,Cc1cc([N+](=O)[O-])c(NCCO)c([N+](=O)[O-])c1
9,125 to 127,Fc1ccc(-n2nccc2-c2ccnc(NCc3ccccc3)c2)cc1
10,123 to 135,Cc1cccc(-c2[nH]c(C(C)C)nc2-c2cccc(-c3ccc(NC(=O)C(C)(C)O)cc3)c2)n1
11,209 to 212,O=C1N(Cc2ccc(-c3ccno3)cc2)c2ccccc2C12COc1cc3c(cc12)OCCO3 (stereo not drawn)
12,112,CCOCC1=C(C(=O)OCC)C(c2ccccc2)C(C(=O)OCC)=C(C)N1 (stereo not drawn)
13,155 to 160,COc1ccc(C=CCN2CCc3nc(N)sc3CC2)cc1
14,190,NC(=O)c1nccn1C1Cc2ccc(Cl)cc2C1=O (stereo not drawn)
15,207 to 209,N#Cc1c(N2CCC[C@@H]2CO)[nH]c2cccnc12
16,132 to 135,COc1cc(C(C)O)ccc1OCCCC1CNCCC1C(c1ccc(F)cc1)c1ccc(F)cc1 (stereo not drawn)
17,122 to 123,CCCCCCCCCCCCc1c2c(=O)c3cc(Br)ccc3c2c(CCCCCCCCCCCC)c2c(=O)c3cc(Br)ccc3c12
18,160 to 162,CCON=C(CC)C1=C(O)CC(c2ccc3c(c2)OCC(=O)N3)CC1=O (stereo not drawn)

row,melting point [°C],Compound
1,91 to 93,CC(C)[C@H]1NC(=O)[C@H]1N (relative stereo)
2,> 300,CCOC(=O)C1Nc2cc(Cl)c(Cl)cc2NC1=O (stereo not drawn)
3,180,COc1ccc(OC)c(S(=O)(=O)c2ccc(Cl)cc2NC(=O)N[C@@H](Cc2ccc(NC(=O)c3c(Cl)cccc3Cl)cc2)C(=O)O)c1
4,110 to 111,CCCn1nc(-c2ccc(O)cc2)c2cccc(-c3ccc(F)cc3)c21
5,266 to 269,CS(=O)c1n[nH]c2ccccc2c1=O (stereo not drawn)
6,155 to 158,CN(CCc1ccc(O)c(O)c1)C(=O)/C=C/c1cccnc1
7,168 to 170,CC(=O)Nc1nc(Oc2ccccc2)nc2nc(-c3ccco3)nn12
8,154 to 156,Cc1cc(Cl)c(-n2nc(C)n(C(F)F)c2=O)cc1O
9,142,O=C(Nc1ccc(N2CCSCC2)c(F)c1)OCc1ccccc1
10,230,CCn1cc(C(=O)O)c(=O)c2cc(Cl)c(N3CCCCC3)cc21
11,95 to 97,Cc1cn([C@H]2CC(N=[N+]=[N-])[C@@H](COC(=O)C(C)(C)CC(=O)N[C@@H](Cc3ccccc3)[C@H](O)C(=O)N3CSC(C)(C)[C@H]3C(=O)NC(C)(C)C)O2)c(=O)[nH]c1=O (stereo partly drawn)
12,135 to 136,Cc1cc(C)c2c(c1O)C(N)C(c1ccccc1)C2 (stereo not drawn)
13,252 to 257,COCc1ccc(-c2cn(-c3cc(C(=O)OC)c(NO)cc3C(F)(F)F)cn2)cc1
14,280 to 285,COc1cc2c(C3C(=O)Nc4ccccc43)ncnc2cc1OCc1ccccc1 (stereo not drawn)
15,255 to 257,O=C1Nc2cc(Br)ccc2N2CCc3cccc1c32
16,108,CCOC1CCN(C(=O)c2ccc(Cl)c(C3(C)C(=O)N(Cc4ccc(OC)cc4OC)c4ccc(Cl)cc43)c2)CC1 (stereo not drawn)
17,153 to 154,CNC(=O)Cc1cccc2c(C(C)C)nccc12

row,Compound,melting point [°C]
1,COc1ccc(CCc2cc3c(s2)NC(=S)CN=C3c2ccccc2Cl)cc1,185 to 186
2,NC(=O)CN1C[C@@H](c2ccccc2)CC1=O,108
3,Oc1c(Cc2c[nH]cn2)cccc1C1=NCCN1,261
